Columns and labels:
[1] = test system: F-luc expression in H-Fluc4 cells; assay: Specificity control assay (induced firefly luciferase, H-Fluc4 cells); type: cell-based
Protocol: H-JRFL#1336 (effector) and H-Fluc4 (control) cells were grown in DMEM containing 10% FBS, 100 μg/ml streptomycin, 100 units/ml penicillin, 200 μg/ml G418, 1 μg/ml puromycin and 2 μg/ml doxycycline. H-JRFL#13 cells carry an HIV-1JR-FL env gene that is induced by growing the cells in the absence of doxycycline (Tet-Off expression system). H-Fluc4 cells, which carry a firefly luciferase gene that is induced in the absence of doxycycline, were used as specificity controls. Both cell lines were derived from HeLa cells and constitutively express the tetracycline-regulated transactivator (Tet-Off expression system). […]
H-JRFL#13 or H-FLuc4 cells were washed thrice, detached with StemPro Accutase, centrifuged at 200×g for 6 minutes at 10° C. and seeded in DMEM containing 10% tetracycline-approved FBS, 100 μg/ml streptomycin, 100 units/ml penicillin, 100 μg/ml G418, 1 μg/ml puromycin and without Phenol Red. […] Firefly luciferase activity was measured using an EnVision Multilabel Plate Reader (PerkinElmer, Boston, Mass.). […]
To identify new molecules that potentially affect HIV-1 entry, a cell-cell fusion assay that mimics the entry of HIV-1 into cells was established (FIG. 1a). The assay uses a firefly luciferase (F-luc) readout to measure the fusion of HeLa effector cells that express the Envs from a primary HIV-1 strain and target cells coexpressing the CD4 and CCR5 receptors. […]

[2] = test system: HIV-1HXBc2; assay: Viral infection assay, CXCR4-tropic virus, Cf2Th-CD4/CXCR4 cells; type: cell-based; settings: HIV-1HXBc2, Cf2Th cells expressing CD4 and CXCR4
[3] = test system: HIV-1JR-FL E168K+N188AΔCT Env trimer; assay: PG9 antibody binding to cell-surface Env trimer (flow cytometry)
Protocol: Flow cytometry. […] After 48-72 hours, cells were detached with 5 mM EDTA/PBS and between 0.5-1 million cells were briefly incubated with various concentrations of 18A and then with or without the indicated concentrations of sCD4. C34-Ig (at a final concentration of 20 μg/ml) or a specified antibody (at final concentration of 1 μg/ml) was added to the cells. […] Cells were washed twice and analyzed with a BD FACSCanto II flow cytometer (BD Biosciences). For analysis of resistant mutants (FIG. 5e-g), the measurements were normalized for the level of sCD4 binding of each mutant, and the response of each mutant was further normalized to that of the wild-type HIV-1JR-FL E168K+N188AΔCT Env (herein designated WTKA). […] The sCD4 IC50/sCD4 binding ratio (FIGS. 4c and e) was calculated as follows. Binding of sCD4 to different envelope mutants was measured by flow cytometry and normalized first to 2G12 binding to account for potentially different Env expression levels, and then to sCD4 binding to the wild-type HIV-1JR-FL Env. The IC50 of sCD4 for inhibition of virus infection by each mutant Env was divided by the normalized sCD4 binding to Env-expressing cells to calculate the sCD4 IC50/sCD4 binding value.

`O=C(N/N=C/c1ccc(O)cc1)Nc1cccc2nsnc12` [Compound 18A] showed an IC50 [1] of 15.1 ± 1.1 µM, an IC50 [2] of ~25 µM and a PG9 binding ([3]; 18A added prior to sCD4 incubation, 37.6% without sCD4, 6.6% with sCD4 alone) of 24.1%. For the same molecule, the “basal level of PG9 binding” value ([3]; absence of sCD4) was “did not affect”.

From patent publication US20170298056A1, “SMALL MOLECULE INHIBITORS OF HIV-1 ENTRY AND METHODS OF USE THEREOF” (Dana-Farber Cancer Institute, Inc., priority 2014, published 2017)
